Laboratory results taken from US12612410B2 (CHILDREN'S HOSPITAL MEDICAL CENTER, priority 2020, dated 2026).
Numbering of substitutions follows the chain as printed.

Key:
FLT3 D835H = biological target: T1, FLT3 D835H (Homo sapiens, UniProt P36888, D835H); assay: DiscoverX KINOMEscan competition binding, FLT3 D835H
T1 construct: host or cells: E. coli BL21-derived host (T7 phage) or HEK-293
T1 sequence (P36888 27-993 D835H): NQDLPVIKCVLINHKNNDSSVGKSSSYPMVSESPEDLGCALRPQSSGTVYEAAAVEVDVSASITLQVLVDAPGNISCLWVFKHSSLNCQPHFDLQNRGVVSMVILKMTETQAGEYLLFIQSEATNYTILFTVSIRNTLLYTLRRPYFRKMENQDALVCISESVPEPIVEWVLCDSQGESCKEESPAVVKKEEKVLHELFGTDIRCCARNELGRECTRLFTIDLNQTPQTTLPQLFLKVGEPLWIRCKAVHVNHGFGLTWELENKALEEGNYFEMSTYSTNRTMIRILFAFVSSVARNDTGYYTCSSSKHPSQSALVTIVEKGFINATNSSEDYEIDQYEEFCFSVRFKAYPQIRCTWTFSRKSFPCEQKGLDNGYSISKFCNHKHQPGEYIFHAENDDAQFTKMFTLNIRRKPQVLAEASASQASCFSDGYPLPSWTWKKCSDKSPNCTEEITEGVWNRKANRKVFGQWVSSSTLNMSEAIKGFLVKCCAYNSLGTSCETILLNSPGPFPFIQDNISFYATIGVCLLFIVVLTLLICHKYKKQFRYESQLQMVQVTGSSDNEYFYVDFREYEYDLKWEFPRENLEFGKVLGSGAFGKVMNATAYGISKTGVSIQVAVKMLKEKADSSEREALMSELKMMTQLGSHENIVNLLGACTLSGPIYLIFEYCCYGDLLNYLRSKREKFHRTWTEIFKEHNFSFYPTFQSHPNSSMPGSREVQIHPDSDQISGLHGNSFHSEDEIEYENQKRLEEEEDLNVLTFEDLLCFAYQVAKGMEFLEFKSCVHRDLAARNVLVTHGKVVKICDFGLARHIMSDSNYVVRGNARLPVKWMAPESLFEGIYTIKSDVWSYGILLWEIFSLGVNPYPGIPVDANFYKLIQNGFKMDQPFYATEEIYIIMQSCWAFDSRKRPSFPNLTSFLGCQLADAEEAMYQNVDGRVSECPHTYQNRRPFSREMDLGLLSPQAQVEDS
From the text: (§1) Kinase binding data were obtained for various exemplary compounds prepared according to Examples 1-24 using the DiscoverX KINOMVIEscan® active site-directed competition binding site-directed assay protocol described below. […] As a result, the data report thermodynamic interaction affinities (Kd values), rather than IC50 values that are dependent on ATP concentrations. The assay uses a DNA-tagged version of the protein kinase, and an immobilized ligand bound to a solid support. Compounds that directly or indirectly prevent kinase binding to the immobilized ligand reduce the amount of kinase captured on the solid support, which is detected using an ultra-sensitive qPCR method. Affinity constants reported from the assay have been reported to be independent of the immobilized ligand used that is coupled to the solid support (See supplemental information in Fabian, M. A. et. al., (2005) Nat. Biotechnol. 23, 329-336; Wodicka, L. M. et. al., (2010) Chem. Biol. 17, 1241-1249.)
(§2) Kinase-tagged T7 phage strains were prepared in an E. coli host derived from the BL21 strain. E. coli were grown to log-phase and infected with T7 phage and incubated with shaking at 32° C. until lysis. The lysates were centrifuged and filtered to remove cell debris. The remaining kinases were produced in HEK-293 cells and subsequently tagged with DNA for qPCR detection. Streptavidin-coated magnetic beads were treated with biotinylated small molecule ligands for 30 minutes at room temperature to generate affinity resins for kinase assays. The liganded beads were blocked with excess biotin and washed with blocking buffer (SeaBlock (Pierce), 1% BSA, 0.05% Tween 20, 1 mM DTT) to remove unbound ligand and to reduce non-specific binding. Binding reactions were assembled by combining kinases, liganded affinity beads, and test compounds in 1× binding buffer (20% SeaBlock, 0.17×PBS, 0.05% Tween 20, 6 mM DTT). Test compounds were prepared as 111× stocks in 100% DMSO. Kds were determined using an 11-point 3-fold compound dilution series with three DMSO control points. All compounds for Kd measurements are distributed by acoustic transfer (non-contact dispensing) in 100% DMSO. The compounds were then diluted directly into the assays such that the final concentration of DMSO was 0.9%. All reactions were performed in polypropylene 384-well plates. Each was a final volume of 0.02 mL. The assay plates were incubated at room temperature with shaking for 1 hour and the affinity beads were washed with wash buffer (1×PBS, 0.05% Tween 20). The beads were then re-suspended in elution buffer (1×PBS, 0.05% Tween 20, 0.5 μM nonbiotinylated affinity ligand) and incubated at room temperature with shaking for 30 minutes. The kinase concentration in the eluates was measured by qPCR.
(§3) Binding constants (Kds) were calculated with a standard dose-response curve using the Hill equation. The Hill Slope was set to −1. Curves were fitted using a non-linear least square fit with the Levenberg-Marquardt algorithm.

FLT3 N841I = biological target: T2, FLT3 N841I (Homo sapiens, UniProt P36888, N841I); assay: DiscoverX KINOMEscan competition binding, FLT3 N841I
T2 construct: host or cells: E. coli BL21-derived host (T7 phage) or HEK-293
T2 sequence (P36888 27-993 N841I): T1 sequence (P36888 27-993 D835H) with H809D, N815I
From the text: as §1, §2, §3

Structure (SMILES) | Kd (FLT3 D835H) [nM] | Kd (FLT3 N841I) [nM]
CC1(c2cn3c(-c4cccc(N[C@H]5CNC[C@@H]5F)n4)cnc3cn2)CC1 [Compound 1, N-((3S,4S)-4-fluoropyrrolidin-3-yl)-6-(6-(1-methylcyclopropyl)imidazo[1,2-a]pyrazin-3-yl)pyridin-2-amine] | 0.066 | 0.12
CC1(c2cn3c(-c4cccc(N[C@@H]5CCNC5)n4)cnc3cn2)CC1 [Compound 3, (R)-6-(6-(1-methylcyclopropyl)imidazo[1,2-a]pyrazin-3-yl)-N-(pyrrolidin-3-yl)pyridin-2-amine] | 0.059 | 0.12
CC1(c2cn3c(-c4cccc(N[C@H]5CNCC56CC6)n4)cnc3cn2)CC1 [Compound 5, (R)-N-(6-(6-(1-methylcyclopropyl)imidazo[1,2-a]pyrazin-3-yl)pyridin-2-yl)-5-azaspiro[2.4]heptan-7-amine] | 0.063 | 0.091
FC(F)(F)C1(c2cn3c(-c4cccc(N[C@@H]5CCNC5)n4)cnc3cn2)CC1 [Compound 10, (R)-N-(pyrrolidin-3-yl)-6-(6-(1-(trifluoromethyl)cyclopropyl)imidazo[1,2-a]pyrazin-3-yl)pyridin-2-amine] | 0.082 | 0.29
FC(F)c1cn2c(-c3cccc(N[C@H]4CNC[C@@H]4F)n3)cnc2cn1 [Compound 16, 6-(6-(difluoromethyl)imidazo[1,2-a]pyrazin-3-yl)-N-((3S,4S)-4-fluoropyrrolidin-3-yl)pyridin-2-amine] | 0.2 | 0.65
FC(F)c1cn2c(-c3cccc(N[C@H]4CNCC[C@@H]4F)n3)cnc2cn1 [Compound 25, 6-(6-(difluoromethyl)imidazo[1,2-a]pyrazin-3-yl)-N-((3S,4S)-4-fluoropiperidin-3-yl)pyridin-2-amine] | 0.18 | 0.27
CC(C)(O)c1cn2c(-c3cccc(N[C@@H]4CCCNC4)n3)cnc2cn1 [Compound 30, (R)-2-(3-(6-(piperidin-3-ylamino)pyridin-2-yl)imidazo[1,2-a]pyrazin-6-yl)propan-2-ol] | 1.2 | 3.5
CC(C)(O)c1cn2c(-c3cccc(N[C@H]4CNCC[C@@H]4F)n3)cnc2cn1 [Compound 31, 2-(3-(6-(((3S,4S)-4-fluoropiperidin-3-yl)amino)pyridin-2-yl)imidazo[1,2-a]pyrazin-6-yl)propan-2-ol] | 0.43 | 2.1
FC(F)(F)COc1cn2c(-c3cccc(N[C@@H]4CCNC4)n3)cnc2cn1 [Compound 38, (R)-N-(pyrrolidin-3-yl)-6-(6-(2,2,2-trifluoroethoxy)imidazo[1,2-a]pyrazin-3-yl)pyridin-2-amine] | 0.24 | 0.52
F[C@H]1CNC[C@@H]1Nc1cccc(-c2cnc3cnc(C4CC4)cn23)n1 [Compound 50, 6-(6-cyclopropylimidazo[1,2-a]pyrazin-3-yl)-N-((3S,4S)-4-fluoropyrrolidin-3-yl)pyridin-2-amine] | 0.032 | 0.25
Cn1cc(-c2cn3c(-c4cccc(N[C@H]5CNC[C@@H]5F)n4)cnc3cn2)cn1 [Compound 52, N-((3S,4S)-4-fluoropyrrolidin-3-yl)-6-(6-(1-methyl-1H-pyrazol-4-yl)imidazo[1,2-a]pyrazin-3-yl)pyridin-2-amine] | 0.078 | 0.24
